These results are taken from ChEMBL document CHEMBL4425190, “Rat intestinal sucrase inhibited by minor constituents from the leaves and twigs of Archidendron clypearia (Jack.) Nielsen” (Bioorg Med Chem Lett, 2016).

Structures are written as SMILES.

Sucrase-isomaltase, intestinal (Rattus norvegicus), sequence (P23739 1-1013 limits assumed): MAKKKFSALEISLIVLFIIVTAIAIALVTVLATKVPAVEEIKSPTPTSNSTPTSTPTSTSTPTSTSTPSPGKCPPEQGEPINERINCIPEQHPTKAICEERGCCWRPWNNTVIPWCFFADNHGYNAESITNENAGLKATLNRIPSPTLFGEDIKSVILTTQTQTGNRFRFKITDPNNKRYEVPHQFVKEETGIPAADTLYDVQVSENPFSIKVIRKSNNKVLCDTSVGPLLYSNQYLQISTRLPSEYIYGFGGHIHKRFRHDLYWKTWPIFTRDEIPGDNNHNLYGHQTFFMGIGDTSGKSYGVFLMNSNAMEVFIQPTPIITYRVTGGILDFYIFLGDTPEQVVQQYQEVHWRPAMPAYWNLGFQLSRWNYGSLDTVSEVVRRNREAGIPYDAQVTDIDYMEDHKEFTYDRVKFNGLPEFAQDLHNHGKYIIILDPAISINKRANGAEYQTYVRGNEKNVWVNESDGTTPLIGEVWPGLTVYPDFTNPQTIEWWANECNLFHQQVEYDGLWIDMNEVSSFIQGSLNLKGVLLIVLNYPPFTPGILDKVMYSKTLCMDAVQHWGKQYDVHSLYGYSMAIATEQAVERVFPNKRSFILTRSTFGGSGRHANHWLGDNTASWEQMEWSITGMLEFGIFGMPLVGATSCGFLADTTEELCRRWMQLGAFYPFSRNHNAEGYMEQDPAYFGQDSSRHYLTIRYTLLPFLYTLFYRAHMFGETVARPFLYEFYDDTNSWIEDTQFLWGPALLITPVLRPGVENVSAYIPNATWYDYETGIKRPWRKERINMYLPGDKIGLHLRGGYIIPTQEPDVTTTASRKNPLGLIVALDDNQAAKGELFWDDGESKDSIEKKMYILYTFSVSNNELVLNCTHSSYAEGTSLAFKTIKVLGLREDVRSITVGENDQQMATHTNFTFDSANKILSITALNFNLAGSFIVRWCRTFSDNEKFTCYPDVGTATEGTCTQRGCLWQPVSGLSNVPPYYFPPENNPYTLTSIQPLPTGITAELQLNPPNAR
Sucrase-isomaltase, intestinal (Rattus norvegicus), sequence (P23739 1014-1841 limits assumed): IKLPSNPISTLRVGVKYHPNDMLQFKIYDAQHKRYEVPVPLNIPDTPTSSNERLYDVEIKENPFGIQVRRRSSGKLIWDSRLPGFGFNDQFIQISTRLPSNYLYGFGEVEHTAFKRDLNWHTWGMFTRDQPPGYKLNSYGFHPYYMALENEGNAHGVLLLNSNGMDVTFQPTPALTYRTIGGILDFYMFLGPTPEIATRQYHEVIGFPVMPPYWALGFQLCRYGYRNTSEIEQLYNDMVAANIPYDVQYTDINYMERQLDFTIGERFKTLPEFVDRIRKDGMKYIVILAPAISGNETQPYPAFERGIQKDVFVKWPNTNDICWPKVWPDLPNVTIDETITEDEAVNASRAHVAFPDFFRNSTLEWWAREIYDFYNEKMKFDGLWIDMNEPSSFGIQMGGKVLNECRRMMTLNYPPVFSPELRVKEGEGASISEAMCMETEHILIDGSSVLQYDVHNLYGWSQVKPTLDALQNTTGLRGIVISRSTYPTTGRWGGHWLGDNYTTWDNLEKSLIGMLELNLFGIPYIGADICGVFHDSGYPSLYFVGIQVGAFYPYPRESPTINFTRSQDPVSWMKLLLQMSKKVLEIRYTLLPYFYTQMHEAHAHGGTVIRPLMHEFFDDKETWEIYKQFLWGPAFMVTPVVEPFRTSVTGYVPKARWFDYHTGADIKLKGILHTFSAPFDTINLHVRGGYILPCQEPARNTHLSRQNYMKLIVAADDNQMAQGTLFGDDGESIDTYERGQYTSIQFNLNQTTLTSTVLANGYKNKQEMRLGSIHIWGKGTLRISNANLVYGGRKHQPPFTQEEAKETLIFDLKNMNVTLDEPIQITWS

One experiment has as its target Sucrase-isomaltase, intestinal (Rattus norvegicus) (UniProt P23739). The experiment is described as follows: Inhibition of rat small intestinal sucrase using sucrose as substrate assessed as amount of liberated glucose at 1 mM after 30 mins by glucose oxidase method.
Settings: not given
Broadly, the inhibition is how much of the control response was suppressed. Regarding `COc1cc(/C=C/CO)ccc1O[C@@H]1O[C@H](CO)[C@@H](O)[C@H](O)[C@H]1O`, the inhibition was 11%.
Same read-out and setting: to `COc1cc([C@@H]2c3c(cc(OC)c(O)c3OC)C[C@H](CO)[C@H]2CO[C@@H]2O[C@H](CO)[C@@H](O)[C@H](O)[C@H]2O)cc(OC)c1O` belongs 66.3%.
Same read-out and setting: to `CC1=CC(=O)CC(C)(C)C1/C=C/[C@@H](C)O[C@@H]1O[C@H](CO[C@@H]2OC[C@](O)(CO)[C@H]2O)[C@@H](O)[C@H](O)[C@H]1O` (stereo not given in full) belongs 13.6%; to `CC1=CC(=O)CC(C)(C)[C@@]1(O)/C=C/[C@@H](C)O[C@@H]1O[C@H](CO)[C@@H](O)[C@H](O)[C@H]1O`, 23.7%; to `C[C@](O)(CC(=O)O)CC(=O)O[C@@H]1[C@@H](O)[C@H](OCc2ccccc2)O[C@H](CO)[C@H]1O`, 88.4%.
Consider `COc1cc([C@H]2c3c(cc(OC)c(O)c3OC)C[C@H](CO)[C@H]2CO)cc(OC)c1O`, for which the inhibition turned out to be 57.5%.
Still for that read-out and setting: to `COc1cc(/C=C/CO)cc(O[C@@H]2O[C@H](CO)[C@@H](O)[C@H](O)[C@H]2O[C@@H]2OC[C@](O)(CO)[C@H]2O)c1OC` belongs 31.3%; to `COc1cc(/C=C/CO)cc(OC)c1O[C@H]1O[C@H](CO)[C@@H](O)[C@H](O)[C@H]1O`, 14.6%; to `N#C[C@H](O[C@@H]1O[C@H](CO[C@@H]2O[C@H](CO)[C@@H](O)[C@H](O)[C@H]2O)[C@@H](O)[C@H](O)[C@H]1O)c1ccccc1`, 50.4%.
As for `COc1cc([C@H]2OC[C@H]3[C@@H]2CO[C@@H]3c2ccc(O)c(OC)c2)ccc1O`, the inhibition is 51.3%.
Still for that read-out and setting: next, `CC(=O)OC[C@H]1O[C@@H](O[C@H](C)/C=C/[C@@]2(O)C(C)=CC(=O)CC2(C)C)[C@H](O)[C@@H](O)[C@@H]1O`: 29.8%.
As for `COc1cc([C@H]2c3c(cc(OC)c(O)c3OC)C[C@H](CO)[C@H]2CO[C@@H]2O[C@H](CO)[C@@H](O)[C@H](O)[C@H]2O)cc(OC)c1O`, the inhibition worked out at 10.8%.
The same measure, in the same setting: to `CC1=CC(=O)CC(C)(C)[C@@]1(O)/C=C/[C@@H](C)O[C@@H]1O[C@H](CO[C@@H]2OC[C@](O)(CO)[C@H]2O)[C@@H](O)[C@H](O)[C@H]1O` belongs 35.1%.
With `COc1cc(C[C@H]2CO[C@H](c3cc(OC)c(O)c(OC)c3)[C@H]2CO[C@@H]2O[C@H](CO)[C@@H](O)[C@H](O)[C@H]2O)cc(OC)c1O`, the inhibition was determined as 81.6%.

The next experiment has the same target. Particulars: 0.02 mM.
Description: Inhibition of rat small intestinal sucrase using sucrose as substrate assessed as amount of liberated glucose at 0.02 mM after 30 mins by glucose oxidase method
`C[C@H]1O[C@H](O[C@H]2[C@H](O)[C@@H](O)[C@@H](O[C@H]3[C@H](O)[C@@H](O)C(O)O[C@@H]3CO)O[C@@H]2CO)[C@H](O)[C@@H](O)[C@@H]1N[C@H]1C=C(CO)[C@@H](O)[C@H](O)[C@H]1O` (stereo not given in full) had an inhibition of 89.5%.
